The record followed here is article PMC7956625, “Optimization and Anti-Cancer Properties of Fluoromethylketones as Covalent Inhibitors for Ubiquitin C-Terminal Hydrolase L1” (Molecules, 2021).

What is called IC50 is the midpoint of a concentration-inhibition curve. In general, kinact refers to the rate constant of inactivation at saturating inhibitor. The term kinact/KI denotes the maximal inactivation rate divided by the concentration that gives half of it.

Each structure is given as a SMILES string. Entries after “also recorded” stand apart in the source; their conditions may differ. Like-named read-outs stand apart in the source and are kept apart here. Where a SMILES comes first, the peptide text is derived from it. The star is where a group is joined. Cbz = O=C(OCc1ccccc1)*; CH2F = FC*

In series [1] the target is T1, UCHL1 (Homo sapiens, UniProt P09936).
T1 sequence (P09936 1-223): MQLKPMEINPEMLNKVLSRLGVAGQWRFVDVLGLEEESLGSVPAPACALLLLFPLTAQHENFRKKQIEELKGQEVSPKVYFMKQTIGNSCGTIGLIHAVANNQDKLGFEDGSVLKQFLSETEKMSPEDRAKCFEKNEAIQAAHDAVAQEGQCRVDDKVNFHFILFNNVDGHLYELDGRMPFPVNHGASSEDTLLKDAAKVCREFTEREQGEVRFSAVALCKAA
Kind of series: Fluorescence-based Ub-Rho deubiquitinase activity assay. The series is classed as biochemical. On the set-up: made in house. The note with it: for IC50: 3 h of preincubation with UCHL1, technical triplicate, averages. The method, then:
Thus, a 3-h preincubation period was selected for the structure-activity relationship (SAR) comparison of all analogs to ensure full reaction time and for consistent comparison of activity against UCHL1 within the scaffold. […] A 10 mM stock solution was made for each inhibitor in DMSO, then a dilution of 600 µM in reaction buffer was made followed eight by 1:1 serial dilutions. […] These were allowed to incubate, while sealed, for the 3 h at room temperature. […] The % activity was plotted as a function of inhibitor concentration and the data was fitted with non-linear regression analysis to calculate the IC50 values. Errors are reported as the 95% confidence interval calculated from experiments collected in technical triplicate.

A further series deals with T2, UCHL3 (Homo sapiens, UniProt P15374).
T2 sequence (P15374 1-230): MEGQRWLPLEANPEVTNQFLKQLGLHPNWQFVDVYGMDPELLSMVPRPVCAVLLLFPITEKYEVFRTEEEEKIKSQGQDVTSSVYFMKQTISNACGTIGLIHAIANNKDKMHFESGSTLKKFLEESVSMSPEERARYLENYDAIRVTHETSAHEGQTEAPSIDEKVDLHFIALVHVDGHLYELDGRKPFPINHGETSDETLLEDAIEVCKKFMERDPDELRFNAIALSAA
The series is described as above. The series is classed as biochemical. Also on record: His (N); made in house. The note with it: top concentration of 200 µM; Figure S1. The procedure:
The in vitro inhibition of UCHL1 was determined by monitoring the cleavage of rhodamine 110 from substrate Rhodamine110-ubiquitin (Ub-Rho). […]. Thus, a 3-h preincubation period was selected for the structure-activity relationship (SAR) comparison of all analogs to ensure full reaction time and for consistent comparison of activity against UCHL1 within the scaffold. […]. The assay was performed in black 384-well plates (Catalog #12566624, Fisher, Waltham, MA, USA). DUB stock solutions were diluted in reaction buffer (50 mm Tris pH 7.6, 0.5 mm EDTA, 5 mm DTT, 0.1 % (w/v) BSA) to a concentration of 2.5 nM for UCHL1 or 0.025 nM for UCHL3. […] Plates were read immediately and fluorescence of cleaved Rhodamine 110 fluorophore was monitored at λex = 485 nm, λem = 535 nm continuously for 20 min on a Synergy Neo2 instrument (BioTek, Winooski, VT, USA) The raw data was loaded into GraphPad Prism 8 (GraphPad Software, San Diego, CA, USA; www.graphpad.com, accessed on 12 January 2021) and the slope of the linear portion of the fluorescence vs. time curves was calculation for each inhibitor concentration and % activity of the enzyme was determined compared to DMSO-treated controls. […] Errors are reported as the 95% confidence interval calculated from experiments collected in technical triplicate.

In series [2] the test system is SW1271 cells. Kind of series: SW1271 cell viability assay. The series is classed as cell-based. The note with it: 100 µM, 24 h. The procedure: UCHL1 is a key promoter of cell invasion and metastasis in small cell lung cancer but not necessarily required for cell viability or proliferation. Thus, we chose to assess the efficacy of targeting UCHL1 using the SW1271 small cell lung cancer cell line. […] The Ub-ABP assay was used to confirm on target engagement of UCHL1 within these cells.
Luciferase-constructed cancer cells were seeded in 96-well plates at 10,000 cells/well with the compounds at the indicated concentrations. DMSO was used as vehicle control. Luminescence readings were acquired after adding 1% D-luciferin (GoldBio, St. Louis, MO, USA) after 24 h. Cell viability was determined by the ratio of luminescence reading compared to the one at 0 h, and normalized to vehicle control.

For series [3], the system named is SW1271 cells. Kind of series: Scratch wound healing cell migration assay. The note with it: 100 µM, 24 h. The class given is cell-based. The procedure: The same experiments were performed on wild type SW1271 cells treated with fluoromethylketone analogs. Molecules 1 and 34 were first assessed for their effect on cell viability at 100 µM to determine if any observed reduction in cell viability may influence the migration assays (Figure 9E). […] Due to the slow reactive nature of the inhibitor and the modest potency the anti-migratory efficacy of these analogs may be improved with longer duration of treatment or increasing the frequency of treatment. Further studies are underway to elucidate the role UCHL1 plays in the migratory cellular pathways using both genetic depletion and inhibitor approaches.
Wild-type or shRNA treated UCHL1 knockdown SW1271 cells were seeded in 12-well plates at 1 million cells/well. The cells were cultured overnight to grow as a confluent single layer. The cross-style wounds were created using pipet tips to scratch on the single layer of cells. The compounds were prepared in full growth media at the desired concentrations and added after the wounds were created. DMSO was used as the vehicle control. Photos of the wounds were captured immediately after adding treatments at 0 h. Photos of the wounds were captured at 0 and 24 h. The areas of cross-style wounds were quantified using Image J 1.52a software. The migration rate (%) was defined as the percentage of area at each timepoint compared to the one at 0 h.

Series [4] has as its target T1, UCHL1. Kind of series: Time-dependent inhibitor analysis (kinact/KI). The series is classed as biochemical. Also on record: made in house. The method, then: Irreversible covalent inhibitors may be further characterized by determining the reversible binding constant (KI) as well as the rate of the covalent bond formation under saturating conditions (kinact). By determining the IC50 over the course of various timepoints, the pseudo first-order rate constant (kobs) could be calculated. […] The % activity of each inhibitor concentration was the plotted vs. time of pre-incubation and the slope of this plot is the pseudo first-order rate constant (kobs) for inhibition at each concentration. The kobs was plotted as a function of inhibitor concentration and then fit to the equation Y = kinactX/(KI + X) to calculate kinact, KI and kinact/KI as described by Resnick et al..

The compound `COC(=O)CC[C@H](NC(=O)[C@H](C)NC(=O)[C@@H](NC(=O)OCc1ccccc1)C(C)C)C(=O)CF` [Cpd 1, benzyloxycarbonyl-Val-Ala-Glu(γ-methoxy)-fluoromethylketone] (Cbz-Val-Ala-Glu(OMe)-CH2F) registered an IC50 on UCHL1 [1] (IC50 (µM)) of 24 µM. Further, at UCHL3, the “activity versus UCHL3” value is given as “no activity”. The “SW1271 cell viability” value with SW1271 cells [2] is reported as “no effect on the cell viability; also recorded: neither 1 nor 34 displayed cytotoxic effect”. In the series on SW1271 cells [3], the “migration of SW1271 cells compared to DMSO control” value was “the same reduction of migratory ability was not observed”. Besides, the Ki at UCHL1 [4] was determined as 60 µM.
In the case of `C#Cc1ccc(COC(=O)N[C@H](C(=O)N[C@@H](C)C(=O)N[C@@H](CCC(=O)OC)C(=O)CF)C(C)C)cc1` [Cpd 34], the IC50 on UCHL1 [1] (read-out: IC50) was determined as 7.7 µM. On UCHL1 [1] (IC50 comparison, 3 h preincubation), the “fold more active than 1 versus UCHL1” value is “approximately 3 fold”. In addition, the “activity versus UCHL3” value at UCHL3 is on record as “no observable activity”. Also, in the series on SW1271 cells [2], the “SW1271 cell viability” value was “no effect on the cell viability; also recorded: did not reduce SW1271 cell viability; also recorded: neither 1 nor 34 displayed cytotoxic effect; also recorded: does not exhibit any cellular toxicity”. Also, the “migration of SW1271 cells compared to DMSO control” value with SW1271 cells [3] is listed as “significantly reduced the ability of the cells to migrate; also recorded: anti-migratory properties”. Moreover, on UCHL1 [4], the “improvement of KI compared with 1” value is reported as “greater than 3 fold”, the kinact was 0.0136 s⁻¹ and the kinact/KI came to 810 M⁻¹ s⁻¹. Also, the Ki on UCHL1 [4] (reversible binding constant of covalent inhibition, read-out: KI) is 16.8 µM.
